{
  "source": "patent US20250367230A1",
  "about": "“Method for preparing SAMe microcapsules” (XIAMEN KINGDOMWAY BIOTECH. CO., LTD., priority 2024, published 2025)",
  "key": {"[1]": {"tested_on": "mouse gastrointestinal tract", "test": "Effect on mouse gastrointestinal tract (indomethacin/ethanol ulcer model, gastric mucosal lesion area)", "assay_type": "in vivo, mice (C57)", "conditions": "mice, 5.0 g/kg·bw gavage once a day for 21 days, then indomethacin 10 mg/kg·bw i.p. and 60% ethanol gavage", "text": "Experimental animals: Healthy adult mice (C57, purchased from Pabeile Experimental Animal Breeding Co., Ltd.), with body weight of 18 to 22 g.\nExperimental materials: The test samples were SAMe microcapsules obtained from the formulas in Examples 1 to 5 and Comparative Examples 1 to 9, and SAMe raw material.\nExperimental method: The designed dose (5.0 g/kg·bw) was equivalent to 5 times the recommended dosage for humans, and an ulcer model control group was set. Each group was gavaged with the test sample once a day, and the control group was fed with an equal volume of distilled water. After 21 consecutive days of feeding, the animals were fasted for 1 day. 0.5 h after the last gavage, the mice of each group were intraperitoneally injected with indomethacin suspension (purchased from Liaoyang Helin Pharmaceutical Co., Ltd.) (10 mg/kg·bw), and 1 h later, the mice were gavaged with 60% ethanol ([…]). After 1 h, the mice were killed by cervical dislocation, laparotomy and ligation of pylorus were carried out, and 1 mL of 1% formalin was orally gavaged. The cardia was immediately ligated and the entire stomach was cut off. After flushing the stomach contents, the stomach was spread on a glass plate. Under a shadowless magnifying lamp, the area of gastric mucosal lesions was measured and statistically analyzed."}, "[2]": {"test": "Determination of pH value of SAMe microcapsules", "assay_type": "physicochemical", "conditions": "1 g of sample added to 100 g of water", "experimental": "1 g of each of the above samples was taken and added to 100 g of water, and the pH value was measured."}},
  "data": [
    {"substance": "S-Adenosyl-L-methionine Disulfate Tosylate [SAMe raw material]", "values": [
      {"measurement": "Lesion area (gastric mucosal lesions)", "setting": "[1]", "value": "11.57 ± 4.35", "unit": "mm^2"},
      {"measurement": "pH value", "setting": "[2]", "value": 1.3}
    ]}
  ]
}
